ER-phagy suppression data for 13 compounds are collected here from ChEMBL document CHEMBL5724696, “Autophagy assay results for EUbOPEN Chemogenomics Library” (2024).

Experiment [1] deals with U2OS. Kind of experiment: (§1) Here: values are normalized to the positive (DMSO; basel flux = defined as 100% suppression) and negative (250nM Torin1; mTOR inhibitor; maximal inducer of autophagy defined as 0% suppression) control compounds and represented as % of ER-phagy suppression. […] The impact of autophagy induction on cells is complex and depends on the affected target. […] Of note, treatment concentrations may be sub-optimal for specific compounds, leading to false negative annotations. It counts as functional, Homo sapiens. To be noted: Compound Concentration 1 uM, Culturing Media DMEM, 1 % Penicillin/Streptomycin, 10% Fetal bovin serum Add-On: blasticidin, Screening Media Control DMEM, 10% Fetal bovin serum Add-On: 1 µg/ml Doxycyclin, Screening Media Samples DMEM, 10% Fetal bovin serum Add-On: 1 µg/ml Doxycyclin 250nM Torin1.

The test system of experiment [2] is U2OS. The description is as §1. It counts as functional, Homo sapiens. The settings on record: Compound Concentration 1 uM, Culturing Media DMEM, 1 % Penicillin/Streptomycin, 10% Fetal bovin serum Add-On: blasticidin, Screening Media Control DMEM, 10% Fetal bovin serum Add-On: 1 µg/ml Doxycyclin, Screening Media Samples DMEM, 10% Fetal bovin serum Add-On: 1 µg/ml Doxycyclin 250nM Torin1. The source holds these as a separate data set.

Regarding `Cn1cnc2c(F)c(Nc3ccc(Br)cc3Cl)c(C(=O)NOCCO)cc21` [SELUMETINIB], the ER-phagy suppression in the experiment on U2OS [1] (Timepoint 12 hours) is 8.54%; in the experiment with U2OS [1] (Timepoint 24 hours), 20.3816%; with U2OS [1] (Timepoint 36 hours), 25.3525%; in the experiment with U2OS [1] (Timepoint 60 hours), 22.2273%; in the experiment on U2OS [2] (Timepoint 12 hours), -10.3683%; with U2OS [2] (Timepoint 24 hours) it was 3.869%. The results for the ER-phagy suppression in the experiment on U2OS [2] (Timepoint 36 hours) and in the experiment with U2OS [2] (Timepoint 54 hours) were 4.29% and 11.1979%, respectively.
With `Cn1cc(-c2ccc3nnc(Sc4ccc5ncccc5c4)n3n2)cn1` [SGX-523], the ER-phagy suppression in the experiment with U2OS [1] (Timepoint 12 hours) is recorded as 6.2538%; in the experiment with U2OS [1] (Timepoint 24 hours) it was 0.9511%; in the experiment on U2OS [1] (Timepoint 36 hours), 4.373%; in the experiment on U2OS [1] (Timepoint 60 hours) it was 11.7711%; in the experiment on U2OS [2] (Timepoint 12 hours) it was -11.2391%; with U2OS [2] (Timepoint 24 hours), -26.6862%. Also, the ER-phagy suppression with U2OS [2] (Timepoint 36 hours) was -36.424%; in the experiment with U2OS [2] (Timepoint 54 hours), -40.7928%.
Regarding `O=C(O)c1ccc2c(c1)nc(Nc1cccc(Cl)c1)c1ccncc12` [SILMITASERTIB], the ER-phagy suppression is recorded as -10.7244% in the experiment with U2OS [1] (Timepoint 12 hours); -5.006% in the experiment with U2OS [1] (Timepoint 24 hours); 5.808% in the experiment with U2OS [1] (Timepoint 36 hours); 11.5407% in the experiment with U2OS [1] (Timepoint 60 hours); 22.7695% in the experiment on U2OS [2] (Timepoint 12 hours); 17.6388% with U2OS [2] (Timepoint 24 hours). For the same compound, the figures for the ER-phagy suppression in the experiment with U2OS [2] (Timepoint 36 hours) and in the experiment on U2OS [2] (Timepoint 54 hours) were 22.3356% and 12.8536%, respectively.
As to `Nc1c(C(=O)NCc2ccc(C(=O)NCCCC3CCCCC3)cc2)cnn1-c1ccccc1` [SR-318], the ER-phagy suppression was -4.749% with U2OS [1] (Timepoint 12 hours); -10.9122% in the experiment on U2OS [1] (Timepoint 24 hours); -18.8313% in the experiment with U2OS [1] (Timepoint 36 hours); -35.2993% with U2OS [1] (Timepoint 60 hours); 18.9481% with U2OS [2] (Timepoint 12 hours); 11.0125% with U2OS [2] (Timepoint 24 hours). Also, the ER-phagy suppression is 12.9949% in the experiment on U2OS [2] (Timepoint 36 hours) and 20.6922% in the experiment with U2OS [2] (Timepoint 54 hours).
For the compound `CN1CCN(C(=O)C(C)(C)c2ccc(C(=O)Nc3cn4cc(-c5cc(C(C)(C)C)cc(C(C)(C)C)c5)ccc4n3)cc2)CC1` [T3-CLK-N], the ER-phagy suppression in the experiment on U2OS [1] (Timepoint 12 hours) is reported as 2.466%; with U2OS [1] (Timepoint 24 hours), 0.7117%; in the experiment on U2OS [1] (Timepoint 36 hours), -6.9152%; with U2OS [1] (Timepoint 60 hours), -11.2006%; in the experiment on U2OS [2] (Timepoint 12 hours), -1.207%; with U2OS [2] (Timepoint 24 hours), -16.3306%. Also, the ER-phagy suppression in the experiment with U2OS [2] (Timepoint 36 hours) is reported as -17.7073%; with U2OS [2] (Timepoint 54 hours), -17.4198%.
As for `CN1CCN(C(=O)C(C)(C)c2ccc(C(=O)Nc3cn4cc(-c5ccncc5)ccc4n3)cc2)CC1` [T3-CLK], the ER-phagy suppression in the experiment with U2OS [1] (Timepoint 12 hours) is listed as 46.4649%; in the experiment on U2OS [1] (Timepoint 24 hours) it was 79.2605%; in the experiment with U2OS [1] (Timepoint 36 hours), 82.4738%; with U2OS [1] (Timepoint 60 hours) it was 83.9667%; with U2OS [2] (Timepoint 12 hours), 58.6484%; with U2OS [2] (Timepoint 24 hours) it was 70.9328%. Further, the ER-phagy suppression in the experiment with U2OS [2] (Timepoint 36 hours) is given as 70.8309%; in the experiment on U2OS [2] (Timepoint 54 hours), 76.3625%.
In the case of `CN1CCC(COc2cnc(-c3cccc(Cn4nc(-c5cccc(C#N)c5)ccc4=O)c3)nc2)CC1` [TEPOTINIB], the ER-phagy suppression with U2OS [1] (Timepoint 12 hours) was -9.035%; in the experiment on U2OS [1] (Timepoint 24 hours) it was 9.179%; in the experiment on U2OS [1] (Timepoint 36 hours), 17.9604%; in the experiment with U2OS [1] (Timepoint 60 hours), 23.3369%; in the experiment with U2OS [2] (Timepoint 12 hours), 4.664%; in the experiment with U2OS [2] (Timepoint 24 hours), -2.8541%. In addition, the figures for the ER-phagy suppression with U2OS [2] (Timepoint 36 hours) and in the experiment on U2OS [2] (Timepoint 54 hours) were -6.061% and -17.192%, respectively.
`Cc1cnc(-c2cc(Cl)ccc2F)cc1-n1c(=O)n(CC(N)=O)c2cnccc21` [TP-008]: the ER-phagy suppression in the experiment with U2OS [1] (Timepoint 12 hours) is -1.571%; with U2OS [1] (Timepoint 24 hours), -13.0499%; in the experiment on U2OS [1] (Timepoint 36 hours) it was -21.2168%; in the experiment on U2OS [1] (Timepoint 60 hours), -35.4053%; in the experiment on U2OS [2] (Timepoint 12 hours), -24.3103%; in the experiment on U2OS [2] (Timepoint 24 hours) it was -37.6592%. Further, the ER-phagy suppression in the experiment on U2OS [2] (Timepoint 36 hours) is -45.8786%; in the experiment with U2OS [2] (Timepoint 54 hours) it was -56.4398%.
Turning to `CN1C(=O)[C@@H](N2CCc3cn(Cc4ccccc4)nc3C2=O)COc2ccccc21` [TP-030-1], the ER-phagy suppression is -22.1461% in the experiment on U2OS [1] (Timepoint 12 hours); -11.0455% in the experiment on U2OS [1] (Timepoint 24 hours); -18.8351% in the experiment with U2OS [1] (Timepoint 36 hours); -24.8138% in the experiment on U2OS [1] (Timepoint 60 hours); -1.154% in the experiment with U2OS [2] (Timepoint 12 hours); -18.125% in the experiment with U2OS [2] (Timepoint 24 hours). Moreover, the ER-phagy suppression in the experiment with U2OS [2] (Timepoint 36 hours) is -30.7242%; in the experiment with U2OS [2] (Timepoint 54 hours), -23.6126%.
For `CN1C(=O)[C@@H](N2CCc3c(nn(Cc4ccccc4)c3Br)C2=O)COc2ccccc21` [TP-030-2], the ER-phagy suppression in the experiment with U2OS [1] (Timepoint 12 hours) was -11.1908%; in the experiment on U2OS [1] (Timepoint 24 hours), -12.0413%; in the experiment on U2OS [1] (Timepoint 36 hours) it was -22.9996%; in the experiment on U2OS [1] (Timepoint 60 hours), -25.2811%; in the experiment on U2OS [2] (Timepoint 12 hours), 7.634%; with U2OS [2] (Timepoint 24 hours) it was -14.2706%. Also, the ER-phagy suppression was -10.5345% in the experiment with U2OS [2] (Timepoint 36 hours) and -6.796% with U2OS [2] (Timepoint 54 hours).
Consider `CC(=O)Nc1cccc(-n2c(=O)n(C3CC3)c(=O)c3c(Nc4ccc(I)cc4F)n(C)c(=O)c(C)c32)c1` [TRAMETINIB], for which the ER-phagy suppression with U2OS [1] (Timepoint 12 hours) is listed as 22.5636%; in the experiment with U2OS [1] (Timepoint 24 hours), 31.8836%; in the experiment on U2OS [1] (Timepoint 36 hours), 34.8635%; in the experiment on U2OS [1] (Timepoint 60 hours) it was 24.7233%; with U2OS [2] (Timepoint 12 hours), -5.637%; with U2OS [2] (Timepoint 24 hours) it was 10.9132%. Moreover, the ER-phagy suppression with U2OS [2] (Timepoint 36 hours) was found to be 18.5776%; in the experiment on U2OS [2] (Timepoint 54 hours), 29.3457%.
As for `CNC(=O)c1ccccc1Nc1cc(Nc2ccc(N3CCOCC3)cc2OC)ncc1C(F)(F)F` [VS-4718], the ER-phagy suppression in the experiment on U2OS [1] (Timepoint 12 hours) is given as 7.822%; in the experiment on U2OS [1] (Timepoint 24 hours) it was -10.4532%; in the experiment on U2OS [1] (Timepoint 36 hours), -8.464%; in the experiment with U2OS [1] (Timepoint 60 hours) it was -16.508%; with U2OS [2] (Timepoint 12 hours), 14.2845%; in the experiment with U2OS [2] (Timepoint 24 hours), -7.017%. Besides, the ER-phagy suppression in the experiment with U2OS [2] (Timepoint 36 hours) is -5.515%; with U2OS [2] (Timepoint 54 hours), 11.4938%.
Consider `NC(=O)c1ccc(N(C(N)=O)c2c(F)cccc2F)nc1-c1ccc(F)cc1F` [VX-702], for which the ER-phagy suppression was 31.8026% in the experiment with U2OS [1] (Timepoint 12 hours); 34.6886% in the experiment on U2OS [1] (Timepoint 24 hours); 33.7769% in the experiment with U2OS [1] (Timepoint 36 hours); 30.7144% in the experiment with U2OS [1] (Timepoint 60 hours); 0.2881% with U2OS [2] (Timepoint 12 hours); -13.3426% with U2OS [2] (Timepoint 24 hours). The ER-phagy suppression is listed as -11.8024% in the experiment with U2OS [2] (Timepoint 36 hours) and 0.1703% in the experiment on U2OS [2] (Timepoint 54 hours).
